Reference: ChEMBL document CHEMBL3507680, “University of Dundee, Gates Library screen for HepG2 cell viability”

Assay: Human HepG2 cell viability assay in 384 well format
Format: toxicity, cell-based
Design: dose 125 nL, time 70.5 hour; cytotoxicity at 70.5 h: concentration not given beside the values
Settings: HepG2 cells, read-out: Inhibition

SMILES | cytotoxicity at 70.5 h
Cn1c(C2CC2)nc2cc(NC(=O)C3CC=CC3)ccc21 | -5.03%
CC(C)CC(CCO)CNC(=O)N1CCC1(C)C (stereo not given) | -1.15%
CNc1ccnc(N2CCC(c3nnc(CN4CCCC4)n3C)CC2)n1 | 13.4%
O=C(C1CCCOC1)N(CC(F)F)c1cccc(Cl)c1 (stereo not given) | 2.67%
CNC(=O)CN(C(=O)c1ccccc1)[C@H]1C[C@H]2CCOC[C@H]2C1 | -1.15%
c1cnc(-c2nn3c(CN4CCCCC4)nnc3s2)cn1 | -6.5%
Cc1ccc(NC(=O)CC2NC(N3CCc4ccccc43)=NC2=O)cc1 (stereo not given) | -7.26%
FC(F)(F)c1ccnc(N2CCC(c3nccn3CC3CC3)CC2)n1 | -4.46%
Cc1ccccc1CC1(C(=O)O)CCCN(c2ncccn2)C1 (stereo not given) | -7.63%
Cc1nccn1C1CCCN(C(=O)c2ccc3c(c2)OCCCO3)C1 (stereo not given) | -0.919%
O=C(Nc1ccccc1)N1CCC(N2Cc3ncccc3C2=O)CC1 | -8.29%
CC(C)CCc1n[nH]c(C(=O)O)c1I | -8.29%
Cc1nc(NCC(O)CN2CCCCCC2)c2c(C)nn(C)c2n1 (stereo not given) | -8.64%
CCC(=O)N1CCCC1c1ccsc1 (stereo not given) | -5.78%
Cc1cc(C)n(-c2cc(N3CCN(C(=O)C(C)(C)C)CC3)nc(C)n2)n1 | 2.21%
CCN(c1ccc(C(=O)Nc2c(C)nn(C(C)C)c2C)cc1)C(C)C | -7.4%
NCc1ccc(Oc2cccc(Cl)c2Cl)cc1 | 14.7%
CCOc1ccnc(N2CCN(C(=O)c3cccnc3)CC2)n1 | -8.35%
Cc1noc(C)c1CNCC1COCc2c(-c3ccsc3)nnn2C1 (stereo not given) | -15.2%
Cc1ccc(CN2C[C@@H]3COC[C@H](NS(C)(=O)=O)[C@@H]3C2)s1 | -10.6%
O=C1CC(N(C(=O)c2ccc3c(c2)CCC3)C2CC2)C(=O)N1 (stereo not given) | 33.4%
CCS(=O)(=O)N1CCOC2(CCCN(c3cnccn3)C2)C1 (stereo not given) | -6.84%
CNc1cc(C2CN(C(=O)c3cscn3)CCO2)nc(C)n1 (stereo not given) | 26%
NCCN1C(=O)CC[C@H]2CN(Cc3ccc4occc4c3)CC[C@H]21 | -8.13%
Cc1ncsc1CCN(C)C(=O)CN1C(=O)OC[C@@H]1c1ccccc1 | 4.46%
CCC(C)(NCC(=O)NC(=O)NC)c1nc(C)cs1 (stereo not given) | -4.2%
Cc1nc(C(=O)NCc2ccccn2)cc(C2CCCN2)n1 (stereo not given) | 20.2%

SMILES | cytotoxicity at 70.5 h
Cc1noc(C)c1CN1CC[C@H]2C[C@H](c3ccncn3)O[C@@H]2C1 | -8.76%
O=C(CCc1c(F)cccc1F)NS(=O)(=O)c1ccc2c(c1)OCCO2 | -6.92%
CC(=O)N1CCc2ccc(S(=O)(=O)N3CCCCC3C)cc21 (stereo not given) | 0.13%
CC(C)n1cnc(-c2nc(C(=O)N3CCCC3)c3ccccn23)c1 | -2.79%
Cc1ccc(OC2(C(=O)O)CCN(C(=O)c3ccc(F)cc3)CC2)cn1 | -7.2%
O=C(Cn1c(=O)oc2ccccc21)N1Cc2cnn(CCO)c2C1 | -2.5%
COc1cc(Cl)ccc1C(=O)N1CCCC(c2cc(C)[nH]n2)C1 (stereo not given) | 36.1%
COc1cc(N2CCc3ncnc(-c4ccncc4)c3CC2)ncn1 | -6.14%
O=C1CCC2(CCCN(C(=O)Cc3ccccn3)C2)N1 (stereo not given) | 2.4%
CCc1ncc(CN2C[C@H]3CC[C@@H]2CN(C(=O)C2CCC2)C3)cn1 | -6.96%
CCCN1CCCC2(CCN(S(=O)(=O)c3cc(C)nn3CC)C2)C1=O (stereo not given) | -21.6%
Cc1nc(CN2CCCC(NCc3csc(C(C)(C)C)n3)C2)no1 (stereo not given) | -6.65%
CC(=O)Nc1nc(C(=O)N2CCCC2Cn2cc(C)cn2)cs1 (stereo not given) | -10.5%
CC(C)c1cc(NC(=O)CN2CCC(N3CCNC3=O)CC2)on1 | -3.58%
O=C(c1ccno1)N1CCO[C@@H]2CC(COCc3ccccn3)C[C@H]21 (stereo not given in full) | -6.23%
CC(C)CC(NC(=O)C1=CCCC1)C(=O)N1CCC(CO)CC1 (stereo not given) | 0.304%
Cc1noc(C)c1-c1ccnc(C2CCNCC2)c1 | -2.34%
O=C(NCCO)C1(CC2CC(c3ccc(F)cc3)=NO2)CCOCC1 (stereo not given) | 14.1%
COc1ccc(C(C(=O)O)N2CCC(Cn3cccn3)CC2)c(OC)n1 (stereo not given) | 15.1%
O=C(NCCCO)c1cc(-c2ccc3c(c2)CCO3)n[nH]1 | 14.5%
CO[C@@H]1CN(c2ccccc2)S(=O)(=O)[C@@]12CCN(S(C)(=O)=O)C2 | 15.4%
Cc1cc(C)n(-c2cncc(NCCNS(C)(=O)=O)n2)n1 | 2.9%
O=C(NCCN1CCCC1)C1(c2ccc(Cl)cc2)CCOCC1 | -3%
CCOc1ccc(NC(C)=O)cc1S(=O)(=O)Nc1nnc(C)s1 | -10.8%
CS(=O)(=O)N1CCC(c2nnc(CN3CCCC3)n2C2CC2)CC1 | 0.642%
CN1CCN(S(=O)(=O)c2cccc(F)c2)c2cnccc21 | -2.79%
O=S(=O)(c1cccnc1)N1CCN(CC(O)c2cccs2)CC1 (stereo not given) | -1.48%

SMILES | cytotoxicity at 70.5 h
CCCC(=O)N1CCC(C(=O)NCCN2CCC(C)CC2)CC1 | -1.92%
Cc1ccc2c(c1)CN(C(=O)c1cnc(C)cn1)C(CN(C)C)CO2 (stereo not given) | 14.1%
Cc1cnn(C2CCCN(C(=O)Cc3cn4ccsc4n3)C2)c1 (stereo not given) | -5.39%
Cc1noc(C)c1CN1CCN(C(=O)Cn2cncn2)CC1 | -5.67%
O=S(=O)(NCCNc1ccc(-n2cccc2)nn1)c1cccs1 | 3.82%
CN1CCN(C)c2cc(NC(=O)c3cc[nH]n3)ccc2C1 | 6.77%
CCc1cc(N2CCC(NCCc3ccc(C)o3)CC2)nc(C)n1 | -16.4%
CN(Cc1cnn(C)c1)C(=O)CN1CCCC1Cn1cncn1 (stereo not given) | 21.4%
CN(CC(N)=O)C(=O)CCCn1ccc2cc(Cl)ccc21 | 10.8%
Oc1cc(C2CCCCN2CC2CC2)nc(-c2ccncc2)n1 (stereo not given) | -10.4%
CCN(C)C[C@@H]1CN(S(=O)(=O)c2ccc(C#N)cc2)C[C@@H]1CO | -1.6%
c1cnc(N2CCC3(CCN(Cc4cccnc4)CC3)CC2)nc1 | -8.42%
CCn1c(C(=O)N2CCN(C(=O)COC)CC2)cc2ccccc21 | 26.3%
CC(=O)N(C)CC(=O)NC(C)c1ccc(OCCC(C)C)cc1 (stereo not given) | -3.81%
CC(C)N1CCc2c(CNC(=O)c3nccn3C)cncc2C1 | -4.9%
COCCNC(=O)c1cccnc1Oc1ccc(Cl)cc1 | -7.58%
CCc1nc(CC2CN(c3ncnc4nc(C)cc(C)c34)CCO2)no1 (stereo not given) | -19%
CC(C)Cc1nc(CS(=O)(=O)c2ccccc2)no1 | -2.63%
COc1cc(C(C#N)NC(=O)CC2=CCCCC2)cc(OC)c1OC (stereo not given) | -5.49%
O=C(NC1CC1)c1nnn(-c2cccc(C(F)(F)F)c2)c1C1CC1 | -8.39%
O=C(c1cccs1)N1CCN(Cc2cc(=O)c3ccccc3[nH]2)CC1 | -4.26%
CCOC(=O)C1CCN(c2cc(C(=O)N3CCCCC3)nc(C)n2)CC1 | -8.82%
c1cc(CNCC2CNc3ccnn3C2)cc(N2CCOCC2)n1 (stereo not given) | -5.11%
Cc1ccc(Cn2ccc(NS(C)(=O)=O)n2)cc1 | -10.8%
CCN1CCC(NC(=O)CN2CCc3c(nc(C4CC4)n3C)C2)CC1 | -10.9%
Cc1noc(C)c1CN1CCc2c(CNc3nccs3)n[nH]c2C1 | -12.5%
